Patent US8063065B2, “Azaindazole compounds as CCR1 receptor antagonists” (Boehringer Ingelheim International GmbH, priority 2008, dated 2011)

Columns and labels:
CCR1 [1] = target: T1, CCR1 (Homo sapiens, UniProt P32246); test: Method A: calcium flux in CCR1 transfected cells (Fluo-4 NW, FLIPR TETRA), block of the CCR1/MIP-1α interaction; assay type: cell-based; settings: Method A: Fluo-4 NW, MIP-1 alpha at EC80
T1 sequence (P32246 1-355): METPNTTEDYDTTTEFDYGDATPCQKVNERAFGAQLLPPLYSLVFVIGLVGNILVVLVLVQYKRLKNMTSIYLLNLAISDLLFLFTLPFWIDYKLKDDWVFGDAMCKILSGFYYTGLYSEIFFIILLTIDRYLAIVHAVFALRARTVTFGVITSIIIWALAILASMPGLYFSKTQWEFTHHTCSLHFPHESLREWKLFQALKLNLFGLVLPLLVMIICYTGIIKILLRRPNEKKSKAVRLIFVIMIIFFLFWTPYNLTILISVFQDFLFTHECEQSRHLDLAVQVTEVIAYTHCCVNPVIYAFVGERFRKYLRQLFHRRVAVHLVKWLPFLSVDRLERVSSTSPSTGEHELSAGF
Procedure, shortened: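 Non-adherent cells stably expressing recombinant CCR1 and G-alpha-16, Fluo-4 NW-loaded 1 h at room temperature, preincubated 1 h with compound (top 3,000 nM, 4-fold, 10 doses; 1% DMSO) in HBSS/20 mM HEPES pH 7.4. MIP-1 alpha added at EC80; intracellular calcium flux recorded on FLIPR TETRA.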

CCR1 [2] = target: T1, CCR1; test: Method B: calcium flux in CCR1 transfected cells (Calcium 4 dye, […] FDSS6000), block of the CCR1/MIP-1α interaction; assay type: cell-based; settings: Method B: Calcium 4 dye, MIP-1alpha at EC80
Procedure, shortened: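 Calcium flux on an FDSS6000 was triggered by MIP-1α at its EC80 in stably CCR1/G-alpha-16-expressing non-adherent cells. Before this, Calcium 4-loaded cells were preincubated with compound in HBSS, 20 mM HEPES pH 7.4, 1% DMSO: 30 min at 37 C plus 30 min at room temperature. Ten 4-fold doses began at 3,000 nM, with ±MIP-1α DMSO wells as controls.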

| Compound | IC50 (CCR1 [1]) | IC50 (CCR1 [2]) |
| --- | --- | --- |
| C[C@H](O)CNS(=O)(=O)c1ccc(CNC(=O)c2cncc3c2cnn3-c2ccc(F)cc2)cc1 [1-(4-Fluorophenyl)-1H-pyrazolo[3,4-c]pyridine-4-carboxylic acid 4-((S)-2-hydroxy-propylsulfamoyl)-benzylamide] | 1 nM | 0.8 nM |
| CC[C@H](NC(=O)c1cncc2c1cnn2-c1ccc(F)cc1)c1cccnc1 [1-(4-Fluorophenyl)-1H-pyrazolo[3,4-c]pyridine-4-carboxylic acid ((S)-1-pyridin-3-yl-propyl)-amide] | 15 nM | 8 nM |
| C=CC[C@H](NC(=O)c1cncc2c1cnn2-c1ccc(F)cc1)c1ccnc(S(=O)(=O)CC)c1 [1-(4-Fluorophenyl)-1H-pyrazolo[3,4-c]pyridine-4-carboxylic acid [(S)-1-(2-ethanesulfonyl-pyridin-4-yl)-but-3-enyl]-amide] | 0.6 nM | 0.4 nM |
| CCC[C@H](NC(=O)c1cncc2c1cnn2-c1ccc(F)cc1)c1cncc(Br)c1 [1-(4-Fluorophenyl)-1H-pyrazolo[3,4-c]pyridine-4-carboxylic acid [(S)-1-(5-bromopyridin-3-yl)-butyl]-amide] | 0.2 nM |  |
| C[C@H](NC(=O)c1cncc2c1cnn2-c1ccc(F)cc1)c1cncc(Br)c1 [1-(4-Fluorophenyl)-1H-pyrazolo[3,4-c]pyridine-4-carboxylic acid [(S)-1-(5-bromopyridin-3-yl)-ethyl]-amide] | 1 nM |  |
| CC[C@H](NC(=O)c1cncc2c1cnn2-c1ccc(F)cc1)c1cncc(Br)c1 [1-(4-Fluorophenyl)-1H-pyrazolo[3,4-c]pyridine-4-carboxylic acid [(S)-1-(5-bromopyridin-3-yl)-propyl]-amide] | 0.2 nM |  |
| C[C@H](NC(=O)c1cncc2c1cnn2-c1ccc(F)cc1)c1cncc(S(C)(=O)=O)c1 [1-(4-Fluorophenyl)-1H-pyrazolo[3,4-c]pyridine-4-carboxylic acid [(S)-1-(5-methanesulfonyl-pyridin-3-yl)-ethyl]-amide] | 3 nM |  |
| CC[C@H](NC(=O)c1cncc2c1cnn2-c1ccc(F)cc1)c1cncc(S(C)(=O)=O)c1 [1-(4-Fluorophenyl)-1H-pyrazolo[3,4-c]pyridine-4-carboxylic acid [(S)-1-(5-methanesulfonyl-pyridin-3-yl)-propyl]-amide] | 0.5 nM | 0.2 nM |
| CCC[C@H](NC(=O)c1cncc2c1cnn2-c1ccc(F)cc1)c1cncc(S(N)(=O)=O)c1 [1-(4-Fluorophenyl)-1H-pyrazolo[3,4-c]pyridine-4-carboxylic acid [(S)-1-(5-sulfamoyl-pyridin-3-yl)-butyl]-amide] | 0.3 nM |  |
| C[C@H](NC(=O)c1cncc2c1cnn2-c1ccc(F)cc1)c1cccc(S(C)(=O)=O)n1 [1-(4-Fluorophenyl)-1H-pyrazolo[3,4-c]pyridine-4-carboxylic acid [(S)-1-(6-methanesulfonyl-pyridin-2-yl)-ethyl]-amide] | 6 nM |  |
| CN(C)CCN(c1ccc(CNC(=O)c2cncc3c2cnn3-c2ccc(F)cc2)cn1)S(C)(=O)=O [1-(4-Fluorophenyl)-1H-pyrazolo[3,4-c]pyridine-4-carboxylic acid {6-[(2-dimethylamino-ethyl)-methanesulfonyl-amino]-pyridin-3-ylmethyl}-amide] | 22 nM |  |
| COCCN(c1ccc(CNC(=O)c2cncc3c2cnn3-c2ccc(F)cc2)cn1)S(C)(=O)=O [1-(4-Fluorophenyl)-1H-pyrazolo[3,4-c]pyridine-4-carboxylic acid {6-[methanesulfonyl-(2-methoxy-ethyl)-amino]-pyridin-3-ylmethyl}-amide] | 1 nM |  |
| CCCC(NC(=O)c1cncc2c1cnn2-c1ccc(F)cc1)c1cncc(S(=O)(=O)CCC(=O)OC)c1 (stereo not drawn) [3-[5-(1-{[1-(4-Fluorophenyl)-1H-pyrazolo[3,4-c]pyridine-4-carbonyl]-amino}-butyl)-pyridine-3-sulfonyl]-propionic acid methyl ester] | 3 nM |  |
| CCC[C@H](NC(=O)c1cncc2c1cnn2-c1ccc(F)cc1)c1cncc(S(=O)(=O)CCC(=O)O)c1 [3-[5-((S)-1-{[1-(4-Fluorophenyl)-1H-pyrazolo[3,4-c]pyridine-4-carbonyl]-amino}-butyl)-pyridine-3-sulfonyl]-propionic acid] | 17 nM |  |
| CC(=O)OCCN(C)S(=O)(=O)c1ccc(CNC(=O)c2cncc3c2cnn3-c2ccc(F)cc2)cc1 [Acetic acid 2-{[4-({[1-(4-fluorophenyl)-1H-pyrazolo[3,4-c]pyridine-4-carbonyl]-amino}-methyl)-benzenesulfonyl]-methyl-amino}-ethyl ester] | 2 nM |  |
| COC(=O)CNS(=O)(=O)c1ccc(CNC(=O)c2cncc3c2cnn3-c2ccc(F)cc2)cc1 [[4-({[1-(4-Fluorophenyl)-1H-pyrazolo[3,4-c]pyridine-4-carbonyl]-amino}-methyl)-benzenesulfonylamino]-acetic acid methyl ester] | 3 nM |  |

More lines, in order of falling IC50 (CCR1 [1]), values ahead:

| IC50 (CCR1 [1]) | IC50 (CCR1 [2]) | Compound |
| --- | --- | --- |
| 35 nM | 14 nM | CC[C@H](NC(=O)c1cncc2c1cnn2-c1ccc(F)cc1)c1cncc(S(=O)(=O)CCC(=O)O)c1 [3-[5-((S)-1-{[1-(4-Fluorophenyl)-1H-pyrazolo[3,4-c]pyridine-4-carbonyl]-amino}-propyl)-pyridine-3-sulfonyl]-propionic acid] |
| 9 nM | 3 nM | C[C@H](NC(=O)c1cncc2c1cnn2-c1ccc(F)cc1)c1ccc(S(C)(=O)=O)nc1 [1-(4-Fluorophenyl)-1H-pyrazolo[3,4-c]pyridine-4-carboxylic acid [(S)-1-(6-methanesulfonyl-pyridin-3-yl)-ethyl]-amide] |
| 6 nM |  | O=C(NCc1cccc(C(F)(F)F)c1)c1c[n+]([O-])cc2c1cnn2-c1ccc(F)cc1 [1-(4-Fluorophenyl)-6-oxy-1H-pyrazolo[3,4-c]pyridine-4-carboxylic acid 3-trifluoromethyl-benzylamide] |
| 5 nM |  | C[C@H](NC(=O)c1cncc2c1cnn2-c1ccc(F)cc1)c1cccc(Br)n1 [1-(4-Fluorophenyl)-1H-pyrazolo[3,4-c]pyridine-4-carboxylic acid [(S)-1-(6-bromopyridin-2-yl)-ethyl]-amide] |
| 4 nM |  | CCC[C@H](NC(=O)c1cncc2c1cnn2-c1ccc(F)cc1)c1cncc(S(=O)(=O)O)c1 [5-((S)-1-{[1-(4-Fluorophenyl)-1H-pyrazolo[3,4-c]pyridine-4-carbonyl]-amino}-butyl)-pyridine-3-sulfonic acid] |
| 2 nM | 1 nM | C[C@@H](O)CNS(=O)(=O)c1ccc(CNC(=O)c2cncc3c2cnn3-c2ccc(F)cc2)cc1 [1-(4-Fluorophenyl)-1H-pyrazolo[3,4-c]pyridine-4-carboxylic acid 4-((R)-2-hydroxy-propylsulfamoyl)-benzylamide] |
| 2 nM | 0.9 nM | C[C@H](NC(=O)c1cncc2c1cnn2-c1ccc(F)cc1)c1cncc(S(N)(=O)=O)c1 [1-(4-Fluorophenyl)-1H-pyrazolo[3,4-c]pyridine-4-carboxylic acid [(S)-1-(5-sulfamoyl-pyridin-3-yl)-ethyl]-amide] |
| 2 nM |  | CCC[C@H](NC(=O)c1cncc2c1cnn2-c1ccc(F)cc1)c1cncc(S(=O)(=O)CCC(=O)OC)c1 [3-[5-((S)-1-{[1-(4-Fluorophenyl)-1H-pyrazolo[3,4-c]pyridine-4-carbonyl]-amino}-butyl)-pyridine-3-sulfonyl]-propionic acid methyl ester] |
| 0.4 nM | 0.3 nM | CC[C@H](NC(=O)c1cncc2c1cnn2-c1ccc(F)cc1)c1cncc(S(=O)(=O)CC)c1 [1-(4-Fluorophenyl)-1H-pyrazolo[3,4-c]pyridine-4-carboxylic acid [(S)-1-(5-ethanesulfonyl-pyridin-3-yl)-propyl]-amide] |
| 0.3 nM |  | CCC[C@H](NC(=O)c1cncc2c1cnn2-c1ccc(F)cc1)c1cncc(S(C)(=O)=O)c1 [1-(4-Fluorophenyl)-1H-pyrazolo[3,4-c]pyridine-4-carboxylic acid [(S)-1-(5-methanesulfonyl-pyridin-3-yl)-butyl]-amide] |
| 0.2 nM |  | CCC[C@H](NC(=O)c1cncc2c1cnn2-c1ccc(F)cc1)c1cncc(S(=O)(=O)NC)c1 [1-(4-Fluorophenyl)-1H-pyrazolo[3,4-c]pyridine-4-carboxylic acid [(S)-1-(5-methylsulfamoyl-pyridin-3-yl)-butyl]-amide] |
